Test systems include COLO 205 colon; SW-620 colon; 786-0 renal; NCI-H23 lung; LOX IMVI melanoma; HOP-62 NSCLC; SF-539 CNS; HOP-92 NSCLC; HL-60(TB) leukemia; SK-MEL-2 melanoma; SK-MEL-5 melanoma; K-562 leukemia; M14 melanoma; UACC-257 melanoma; SN12C renal; RXF 393 renal; MCF7 breast; DU-145 prostate; NCI/ADR-RES ovarian.
Holding throughout (experiment): NCI anticancer screen, dose series, 48 h

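Tested at 5 concentrations; 48 h exposure; 96-well plates; endpoints linearly interpolated, else capped at highest concentration. TGI denotes the concentration required for complete inhibition of growth.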

With `CCCN1CN(C(C(=O)N[C@@H]2C(=O)N3C2SC(C)(C)C3C(=O)O)c2ccccc2)CSC1=S` (stereo partly drawn), the TGI in the test on COLO 205 colon is greater than 100 µM; in the test with SW-620 colon, 31.7 µM; with 786-0 renal, greater than 100 µM; in the test on NCI-H23 lung, greater than 100 µM; in the test with LOX IMVI melanoma, greater than 100 µM; with HOP-62 NSCLC it was greater than 100 µM. In addition, the TGI in the test with SF-539 CNS, in the test with HOP-92 NSCLC, in the test with HL-60(TB) leukemia, in the test with SK-MEL-2 melanoma, in the test with SK-MEL-5 melanoma and in the test on K-562 leukemia was greater than 100 µM throughout. Moreover, the TGI with M14 melanoma, in the test on UACC-257 melanoma and in the test with SN12C renal was greater than 100 µM throughout.
For `C=CCNC(=S)N1c2ccccc2NC(=O)CC1C` (stereo not drawn), the TGI with COLO 205 colon, with SW-620 colon, in the test with 786-0 renal, in the test with NCI-H23 lung, in the test on LOX IMVI melanoma and in the test on HOP-62 NSCLC was greater than 100 µM in each case. Moreover, the TGI with SF-539 CNS, in the test with HL-60(TB) leukemia, with SK-MEL-2 melanoma, in the test with SK-MEL-5 melanoma, with K-562 leukemia and in the test with M14 melanoma was greater than 100 µM throughout. Also, the TGI with SN12C renal and in the test with RXF 393 renal was greater than 100 µM throughout.
On to `CCCCCCCCCCCCn1c(=O)cc(NCCCC)c2cc3c(NCCCC)cc(=O)n(CCCCCCCCCCCC)c3nc21`, for which the TGI with COLO 205 colon, in the test on MCF7 breast, in the test with 786-0 renal, with DU-145 prostate, in the test on NCI-H23 lung and with HOP-62 NSCLC was greater than 100 µM in each case. Further, the TGI in the test on HOP-92 NSCLC, in the test with SK-MEL-2 melanoma, in the test on NCI/ADR-RES ovarian, with SK-MEL-5 melanoma, with K-562 leukemia and in the test on M14 melanoma was greater than 100 µM each time. The TGI in the test on UACC-257 melanoma and in the test on SN12C renal was greater than 100 µM throughout.
On to `CSC(=NCCCCN=C(NS(=O)(=O)c1ccc(Cl)cc1)SC)NS(=O)(=O)c1ccc(Cl)cc1`, for which the TGI in the test with COLO 205 colon, in the test with SW-620 colon, in the test on MCF7 breast, with 786-0 renal, with DU-145 prostate and in the test with LOX IMVI melanoma was greater than 100 µM in each case. Also, the TGI in the test on HOP-62 NSCLC, with SF-539 CNS, with HOP-92 NSCLC, with HL-60(TB) leukemia, in the test with SK-MEL-2 melanoma and with NCI/ADR-RES ovarian was greater than 100 µM each time. The TGI in the test with K-562 leukemia, in the test on M14 melanoma, with UACC-257 melanoma and with SN12C renal was greater than 100 µM throughout.
As for `O=C(Cn1cc(-c2ccccc2)nn1)NC1CCCC1`, the TGI with COLO 205 colon, with SW-620 colon, in the test with MCF7 breast, in the test with 786-0 renal, in the test on DU-145 prostate and in the test on NCI-H23 lung was greater than 100 µM in each case. The TGI with LOX IMVI melanoma, in the test with HOP-62 NSCLC, in the test on SF-539 CNS, in the test with HOP-92 NSCLC, with HL-60(TB) leukemia and in the test on SK-MEL-2 melanoma was greater than 100 µM in each case. In addition, the TGI in the test on NCI/ADR-RES ovarian, with SK-MEL-5 melanoma, in the test on K-562 leukemia, in the test with M14 melanoma, in the test on UACC-257 melanoma and with SN12C renal was greater than 100 µM each time.
For `CCOC(=O)C(Cc1ccccc1)NC(=O)c1ccc(N=NN(C)C)cc1` (stereo not drawn), the TGI in the test on COLO 205 colon, in the test on SW-620 colon, with 786-0 renal, in the test on NCI-H23 lung, in the test on LOX IMVI melanoma and in the test on HOP-62 NSCLC was greater than 100 µM in each case. Also, the TGI with SF-539 CNS, in the test on HL-60(TB) leukemia, in the test on SK-MEL-2 melanoma, with SK-MEL-5 melanoma, in the test with K-562 leukemia and in the test on M14 melanoma was greater than 100 µM each time. In addition, the TGI in the test with UACC-257 melanoma and in the test on SN12C renal was greater than 100 µM in each case.
As for `CCOc1ccccc1N=Nc1c(-c2ccccc2)nn(C(=O)CC(=O)Nc2cccc(Cl)c2)c1-c1ccccc1`, the TGI in the test on COLO 205 colon, in the test with SW-620 colon, with 786-0 renal, with NCI-H23 lung, in the test with LOX IMVI melanoma and in the test on HOP-62 NSCLC was greater than 100 µM in each case. The TGI in the test on SF-539 CNS, with HOP-92 NSCLC, in the test on HL-60(TB) leukemia, in the test on SK-MEL-2 melanoma, in the test on SK-MEL-5 melanoma and in the test on K-562 leukemia was greater than 100 µM in each case. The TGI in the test on M14 melanoma, in the test on UACC-257 melanoma, in the test with SN12C renal and with RXF 393 renal was greater than 100 µM each time.
As for `O=C(NCc1ccccc1)c1cc2cc(O)c(O)cc2cn1`, the TGI in the test with COLO 205 colon was greater than 100 µM; in the test with SW-620 colon, greater than 100 µM; with 786-0 renal, greater than 100 µM; in the test on NCI-H23 lung it was 46.8 µM; in the test on LOX IMVI melanoma, 66.4 µM; in the test on HOP-62 NSCLC, 81.1 µM. Also, the TGI with SF-539 CNS was greater than 100 µM; in the test on HOP-92 NSCLC, greater than 100 µM; in the test with HL-60(TB) leukemia, 48.6 µM; in the test with SK-MEL-2 melanoma it was 97.6 µM; with SK-MEL-5 melanoma it was 50.9 µM; in the test on K-562 leukemia, greater than 100 µM. For the same compound, the TGI was 43.1 µM with M14 melanoma, 73.1 µM with UACC-257 melanoma, greater than 100 µM with SN12C renal and 62.3 µM in the test on RXF 393 renal.
On to `O=C(O)C(Cc1c[nH]c2ccccc12)N=Cc1nc(-c2ccccc2)oc1O` (stereo not drawn), for which the TGI with COLO 205 colon, in the test on SW-620 colon, in the test with 786-0 renal, in the test with NCI-H23 lung, with LOX IMVI melanoma and in the test with HOP-62 NSCLC was greater than 100 µM each time. For the same compound, the TGI in the test with SF-539 CNS, in the test on HOP-92 NSCLC, in the test on HL-60(TB) leukemia, in the test on SK-MEL-2 melanoma, in the test on SK-MEL-5 melanoma and with K-562 leukemia was greater than 100 µM throughout. Also, the TGI with M14 melanoma, in the test with UACC-257 melanoma, in the test with SN12C renal and in the test with RXF 393 renal was greater than 100 µM throughout.
For `COc1ccc(CNc2nc3cc(C(F)(F)F)ccc3nc2C(=O)O)cc1OC`, the TGI in the test on COLO 205 colon was 57.7 µM; in the test with SW-620 colon it was greater than 100 µM; with MCF7 breast it was 95 µM; with 786-0 renal, greater than 100 µM; in the test on DU-145 prostate, greater than 100 µM; in the test with NCI-H23 lung, greater than 100 µM. The TGI was greater than 100 µM in the test on LOX IMVI melanoma; 66.1 µM with HOP-62 NSCLC; greater than 100 µM with SF-539 CNS; greater than 100 µM in the test on HOP-92 NSCLC; 51.8 µM in the test on SK-MEL-2 melanoma; greater than 100 µM with NCI/ADR-RES ovarian. In addition, the TGI in the test on SK-MEL-5 melanoma was 43.7 µM; in the test on K-562 leukemia, 74.7 µM; in the test with M14 melanoma it was greater than 100 µM; with UACC-257 melanoma, greater than 100 µM; in the test on SN12C renal it was 77.9 µM.
Regarding `COc1ccc(CNC2=C(NC(C)=O)C(=O)c3ccccc3C2=O)cc1`, the TGI in the test with COLO 205 colon was 16.4 µM; in the test with SW-620 colon it was 14.9 µM; in the test on 786-0 renal, greater than 50 µM; with NCI-H23 lung it was 14.7 µM; in the test with LOX IMVI melanoma it was 18.7 µM; in the test on HOP-62 NSCLC, greater than 50 µM. The TGI in the test with SF-539 CNS came out at 21.9 µM; in the test with HOP-92 NSCLC, 13 µM; in the test with HL-60(TB) leukemia, 7.45 µM; with SK-MEL-2 melanoma, 19.2 µM; in the test with SK-MEL-5 melanoma, 14.1 µM; in the test on K-562 leukemia, 26.4 µM. The TGI in the test with M14 melanoma was greater than 50 µM; in the test on UACC-257 melanoma, 21.7 µM; in the test on SN12C renal it was greater than 50 µM; in the test with RXF 393 renal, 12.8 µM.
With `COC(=O)N/N=C(/CCN1CCCC1)CC(c1ccccc1)c1c(O)c2ccccc2oc1=O` (stereo not drawn), the TGI in the test with COLO 205 colon, with SW-620 colon, in the test on 786-0 renal, in the test with NCI-H23 lung, in the test on LOX IMVI melanoma and in the test with HOP-62 NSCLC was greater than 100 µM throughout. The TGI with SF-539 CNS, in the test with HL-60(TB) leukemia, with SK-MEL-2 melanoma, in the test on SK-MEL-5 melanoma, with K-562 leukemia and in the test on M14 melanoma was greater than 100 µM each time. The TGI in the test on UACC-257 melanoma, in the test with SN12C renal and in the test with RXF 393 renal was greater than 100 µM in each case.
Turning to `COc1ccc(NC(=O)C(=O)C2CNC(=O)NC2=O)c(OC)c1` (stereo not drawn), the TGI in the test on COLO 205 colon, in the test with SW-620 colon, in the test on 786-0 renal, in the test with NCI-H23 lung, with LOX IMVI melanoma and in the test on HOP-62 NSCLC was greater than 100 µM each time. For the same compound, the TGI in the test with SF-539 CNS, with HOP-92 NSCLC, with HL-60(TB) leukemia, in the test with SK-MEL-2 melanoma, in the test with SK-MEL-5 melanoma and in the test on K-562 leukemia was greater than 100 µM in each case. For the same compound, the TGI in the test with M14 melanoma, in the test with UACC-257 melanoma, with SN12C renal and in the test on RXF 393 renal was greater than 100 µM in each case.

(Values after PubChem BioAssay (NCI).)
